Values of other authors, collected in patent US20230357095A1, “HYDROGEN NANOBUBBLES INFUSED WATER FOR […] IRRIGATION” (L'Air Liquide, Societe Anonyme pour l'Etude et …, priority 2020, published 2023).
Where two headings read alike, the source gives them in different places.

Conditions: P=1 bar

Structure (SMILES): [HH] [hydrogen]
- Saturation concentration of hydrogen in pure water (T=273.1 K): 1.95 mg/L
- Saturation concentration of hydrogen in pure water (T=298.1 K): 1.60 mg/L
